Biological target: Recombinant Human Poly(ADP-Ribose) Polymerase (PARP), PARP-1 (Homo sapiens (Human), UniProt P09874)
Settings: read-out: PARP-1 (Ki); Table 1; text calls the values EC50s
Procedure: Nicotinamide[2,5′,8-3H]adenine dinucleotide and strepavidin SPA beads were purchased from Amersham Biosiences. […] NAD^+, histone, aminobenzamide, 3-amino benzamide and Calf Thymus DNA (dcDNA) were purchased from Sigma. Stem loop oligonucleotide containing MCAT sequence was obtained from Qiagen. The oligos were dissolved to 1 mM in annealing buffer containing 10 mM Tris HCl pH 7.5, 1 mM EDTA, and 50 mM NaCl, incubated for 5 minutes at 95° C., and annealed at 45° C. for 45 minutes. […] Biotinylated histone H1 was prepared by treating the protein with Sulfo-NHS-LC-Biotin from Pierce. The biotinylation reaction was conducted by slowly and intermittently adding 3 equivalents of 10 mM Sulfo-NHS-LC-Biotin to 100 μM Histone H1 in phosphate-buffered saline, pH 7.5, at 4° C. with gentle vortexing over 1 minute followed by subsequent 4° C. incubation for 1 hour. Streptavidin coated (FlashPlate Plus) microplates were purchased from Perkin Elmer.
PARP1 assay was conducted in PARP assay buffer containing 50 mM Tris pH 8.0, 1 mM DTT, 4 mM MgCl2. […] Auto reactions utilizing SPA bead-based detection were carried out in 100 μL volumes in white 96 well plates.

Sequence of Recombinant Human Poly(ADP-Ribose) Polymerase (PARP), PARP-1 (P09874 whole entry): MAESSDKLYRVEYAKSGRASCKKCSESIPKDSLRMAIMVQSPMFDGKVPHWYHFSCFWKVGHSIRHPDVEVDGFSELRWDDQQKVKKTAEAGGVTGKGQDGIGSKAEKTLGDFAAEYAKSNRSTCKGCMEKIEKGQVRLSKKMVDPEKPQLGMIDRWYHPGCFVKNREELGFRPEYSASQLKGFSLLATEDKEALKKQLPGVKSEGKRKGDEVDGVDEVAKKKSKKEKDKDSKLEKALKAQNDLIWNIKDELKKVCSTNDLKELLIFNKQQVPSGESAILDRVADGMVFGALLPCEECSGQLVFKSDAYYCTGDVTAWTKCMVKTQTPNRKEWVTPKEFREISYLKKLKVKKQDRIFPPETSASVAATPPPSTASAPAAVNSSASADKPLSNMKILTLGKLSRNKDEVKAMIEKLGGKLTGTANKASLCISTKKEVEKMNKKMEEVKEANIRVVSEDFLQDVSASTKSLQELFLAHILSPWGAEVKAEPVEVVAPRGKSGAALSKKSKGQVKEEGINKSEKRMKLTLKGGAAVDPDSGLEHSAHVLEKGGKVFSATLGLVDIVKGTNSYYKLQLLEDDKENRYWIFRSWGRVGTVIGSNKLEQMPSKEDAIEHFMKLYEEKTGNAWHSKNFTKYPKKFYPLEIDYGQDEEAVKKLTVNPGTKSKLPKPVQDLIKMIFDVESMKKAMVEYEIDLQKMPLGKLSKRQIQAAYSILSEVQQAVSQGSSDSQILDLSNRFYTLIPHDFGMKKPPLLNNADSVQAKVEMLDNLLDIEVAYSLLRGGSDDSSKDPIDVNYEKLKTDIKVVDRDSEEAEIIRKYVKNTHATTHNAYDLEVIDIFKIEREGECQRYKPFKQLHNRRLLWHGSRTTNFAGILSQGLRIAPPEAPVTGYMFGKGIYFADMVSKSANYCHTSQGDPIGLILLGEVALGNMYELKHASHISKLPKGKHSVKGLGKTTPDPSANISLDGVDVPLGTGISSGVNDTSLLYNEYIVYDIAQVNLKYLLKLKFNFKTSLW

| Compound | Ki [nM] |
| --- | --- |
| O=C(c1cc(Cc2n[nH]c(=O)c3c2CCCC3)ccc1F)N1CCN(CCN2CCOCC2)CC1 [Example 571, 4-(4-fluoro-3-{[4-(2-morpholin-4-ylethyl)piperazin-1-yl]carbonyl}benzyl)-5,6,7,8-tetrahydrophthalazin-1(2H)-one] | 4 |
| O=C(NCCCN1CCOCC1)c1cccc(Cc2n[nH]c(=O)c3c2CCCC3)c1 [Example 317, N-(3-morpholin-4-ylpropyl)-3-((4-oxo-3,4,5,6,7,8-hexahydrophthalazin-1-yl)methyl)benzamide] | 25 |
| CC1(C(=O)Nc2cccc(Cc3n[nH]c(=O)c4c3CCCC4)c2)CC1 [Example 136, 1-methyl-N-(3-((4-oxo-3,4,5,6,7,8-hexahydrophthalazin-1-yl)methyl)phenyl)cyclopropanecarboxamide] | 76 |
| CN(C(=O)Nc1cc(Cc2n[nH]c(=O)c3c2CCCC3)ccc1F)c1ccccc1 [Example 618, N′-{2-fluoro-5-[(4-oxo-3,4,5,6,7,8-hexahydrophthalazin-1-yl)methyl]phenyl}-N-methyl-N-phenylurea] | 41 |
| CC1=C(C)C(=O)N(c2cc(Cc3n[nH]c(=O)c4c3CCCC4)ccc2F)C1=O [Example 290, 1-(2-fluoro-5-((4-oxo-3,4,5,6,7,8-hexahydrophthalazin-1-yl)methyl)phenyl)-3,4-dimethyl-1H-pyrrole-2,5-dione] | 1 |
| O=C1CCCN1c1cccc(CCc2n[nH]c(=O)c3c2CCCC3)c1 [Example 262, 4-(2-(3-(2-oxopyrrolidin-1-yl)phenyl)ethyl)-5,6,7,8-tetrahydrophthalazin-1(2H)-one] | 304 |
| CC(Cc1n[nH]c(=O)c2c1CCCC2)c1ccc(F)c(-c2cccc(C(N)=O)c2)c1 (stereo not drawn) [Example 295, 2′-fluoro-5′-(1-methyl-2-(4-oxo-3,4,5,6,7,8-hexahydrophthalazin-1-yl)ethyl)-1,1′-biphenyl-3-carboxamide] | 912 |
| CC(=O)CCCC(=O)Nc1cc(Cc2n[nH]c(=O)c3c2CCCC3)ccc1F [Example 455, N-(2-fluoro-5-((4-oxo-3,4,5,6,7,8-hexahydrophthalazin-1-yl)methyl)phenyl)-5-oxohexanamide] | 1.3 |
| Cc1c(C(=O)Nc2cccc(Cc3n[nH]c(=O)c4c3CCCC4)c2)cnn1-c1ccccc1 [Example 219] | 9 |
| O=C(c1cccc(Cc2n[nH]c(=O)c3c2CCCC3)c1)N1CCN(c2ccccc2Cl)CC1 [Example 446, 4-(3-((4-(2-chlorophenyl)piperazin-1-yl)carbonyl)benzyl)-5,6,7,8-tetrahydrophthalazin-1(2H)-one] | 10 |
| O=C1C2CCCCC2C(=O)N1c1cc(Cc2n[nH]c(=O)c3c2CCCC3)ccc1F (stereo not drawn) [Example 298, 2-(2-fluoro-5-((4-oxo-3,4,5,6,7,8-hexahydrophthalazin-1-yl)methyl)phenyl)hexahydro-1H-isoindole-1,3(2H)-dione] | 2 |
| O=C(CCN1CCCCC1)Nc1cccc(Cc2n[nH]c(=O)c3c2CCCC3)c1 [Example 98, N-(3-((4-oxo-3,4,5,6,7,8-hexahydrophthalazin-1-yl)methyl)phenyl)-3-piperidin-1-ylpropanamide] | 286 |
| CN(C)CCN1CCN(C(=O)c2cc(Cc3n[nH]c(=O)c4c3CCCC4)ccc2F)CC1 [Example 501, 4-[3-({4-[2-(dimethylamino)ethyl]piperazin-1-yl}carbonyl)-4-fluorobenzyl]-5,6,7,8-tetrahydrophthalazin-1(2H)-one] | 4 |
| CC(C)n1c(C(F)(F)F)nc2cc(C(=O)N3CCN(C(=O)c4cc(Cc5n[nH]c(=O)c6c5NCCC6)ccc4F)CC3)ccc21 [Example 647] | 1.7 |
| CCN(CCN(C)C)C(=O)c1cccc(Cc2n[nH]c(=O)c3c2CCCC3)c1 [Example 418, N-(2-(dimethylamino)ethyl)-N-ethyl-3-((4-oxo-3,4,5,6,7,8-hexahydrophthalazin-1-yl)methyl)benzamide] | 34 |
